Results: PubChem BioAssay (NCI)
Where “and” joins values, the source holds several entries; their conditions need not be identical. Equal values may be shown once.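 Interpolation was linear, between the two tested concentrations surrounding the appropriate level; five concentrations were tested over 48 hours in 96-well plates. GI50 marks 50% less growth. At the TGI there is no net growth.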

Key:
Test in all cases: inhibition of tumour cell growth, NCI panel, 48 h
SK-OV-3 ovarian = system: SK-OV-3 ovarian
HCC-2998 colon = system: HCC-2998 colon
CCRF-CEM leukemia = system: CCRF-CEM leukemia
SNB-75 CNS = system: SNB-75 CNS
SF-539 CNS = system: SF-539 CNS
SW-620 colon = system: SW-620 colon
SNB-19 CNS = system: SNB-19 CNS
A549 NSCLC = system: A549 NSCLC
DU-145 prostate = system: DU-145 prostate
K-562 leukemia = system: K-562 leukemia

O=C(c1ccccc1)n1c(-c2ccccc2)cs/c1=N\S(=O)(=O)c1ccc(N2N=C3c4ccccc4CC3C2c2cccs2)cc1 (stereo not given)
GI50 (SK-OV-3 ovarian): > 100 µM | TGI (SK-OV-3 ovarian): > 100 µM | GI50 (HCC-2998 colon): 14 µM | TGI (HCC-2998 colon): 32.6 µM | GI50 (CCRF-CEM leukemia): 41.3 µM | TGI (CCRF-CEM leukemia): > 100 µM | GI50 (SNB-75 CNS): > 100 µM | TGI (SNB-75 CNS): > 100 µM | GI50 (SF-539 CNS): 58.6 µM | TGI (SF-539 CNS): > 100 µM | GI50 (SW-620 colon): 58.8 µM | TGI (SW-620 colon): > 100 µM | GI50 (SNB-19 CNS): 59.3 µM | TGI (SNB-19 CNS): > 100 µM | GI50 (A549 NSCLC): 39.5 µM | TGI (A549 NSCLC): > 100 µM | GI50 (DU-145 prostate): 47 µM | TGI (DU-145 prostate): > 100 µM | GI50 (K-562 leukemia): 27.6 µM | TGI (K-562 leukemia): > 100 µM

COc1cc(NCCN=C(N)NC(N)=NC(C)C)c2ncccc2c1
GI50 (SK-OV-3 ovarian): 48.8 µM | TGI (SK-OV-3 ovarian): > 100 µM | GI50 (HCC-2998 colon): 6.61 µM | TGI (HCC-2998 colon): 50.9 µM | GI50 (CCRF-CEM leukemia): 16.4 µM | TGI (CCRF-CEM leukemia): > 100 µM | GI50 (SNB-75 CNS): 2.48 µM | TGI (SNB-75 CNS): 13.8 µM | GI50 (SF-539 CNS): 4.06 µM | TGI (SF-539 CNS): 20 µM | GI50 (SW-620 colon): 15.4 µM | TGI (SW-620 colon): > 100 µM | GI50 (SNB-19 CNS): 9.18 µM | TGI (SNB-19 CNS): > 100 µM | GI50 (A549 NSCLC): 37.3 µM | TGI (A549 NSCLC): > 100 µM | GI50 (DU-145 prostate): 38.3 µM | TGI (DU-145 prostate): > 100 µM | GI50 (K-562 leukemia): 10.7 µM | TGI (K-562 leukemia): > 100 µM

CN1CCN(CCOc2cc(OC3CCOCC3)c3c(Nc4c(Cl)ccc5c4OCO5)ncnc3c2)CC1
GI50 (SK-OV-3 ovarian): 0.441 µM and 0.345 µM | TGI (SK-OV-3 ovarian): 13.2 µM and > 10 µM | GI50 (HCC-2998 colon): 17.7 µM and > 10 µM | TGI (HCC-2998 colon): 37.7 µM and > 10 µM | GI50 (CCRF-CEM leukemia): 21.5 µM and > 10 µM | TGI (CCRF-CEM leukemia): 76.3 µM and > 10 µM | GI50 (SNB-75 CNS): 0.206 µM and 0.209 µM | TGI (SNB-75 CNS): 3.47 µM and > 10 µM | GI50 (SF-539 CNS): 6.5 µM and 6.41 µM | TGI (SF-539 CNS): 21.1 µM and > 10 µM | GI50 (SW-620 colon): 17.5 µM and > 10 µM | TGI (SW-620 colon): 33.6 µM and > 10 µM | GI50 (SNB-19 CNS): 12.1 µM and > 10 µM | TGI (SNB-19 CNS): > 100 µM | GI50 (A549 NSCLC): 5.27 µM and 3.26 µM | TGI (A549 NSCLC): 25.9 µM and > 10 µM | GI50 (DU-145 prostate): 3.72 µM and 7.29 µM | TGI (DU-145 prostate): 39.7 µM and > 10 µM | GI50 (K-562 leukemia): 0.382 µM and 0.47 µM | TGI (K-562 leukemia): 9.24 µM and > 10 µM

COc1ccc(Cn2cc3c(c2-c2ccccc2)CCc2cnoc2-3)cc1N
GI50 (SK-OV-3 ovarian): 0.252 µM | TGI (SK-OV-3 ovarian): > 100 µM | GI50 (HCC-2998 colon): 0.496 µM | TGI (HCC-2998 colon): > 100 µM | GI50 (CCRF-CEM leukemia): 0.245 µM | GI50 (SNB-75 CNS): 0.114 µM | TGI (SNB-75 CNS): 0.777 µM | GI50 (SF-539 CNS): 0.158 µM | TGI (SF-539 CNS): 0.579 µM | GI50 (SW-620 colon): 0.0779 µM | TGI (SW-620 colon): > 100 µM | GI50 (SNB-19 CNS): 0.531 µM | TGI (SNB-19 CNS): > 100 µM | GI50 (A549 NSCLC): 0.224 µM | TGI (A549 NSCLC): > 100 µM | GI50 (DU-145 prostate): 0.21 µM | TGI (DU-145 prostate): 1.27 µM | GI50 (K-562 leukemia): 0.0452 µM | TGI (K-562 leukemia): > 100 µM

CCN1C[C@]2(COC)[C@H](O)C[C@H](OC)[C@]34C1[C@H]([C@H](OC)[C@H]23)[C@]1(OC(C)=O)[C@H]2[C@@H](OC(=O)c3ccccc3)[C@](O)(C[C@H]24)[C@@H](OC)[C@@H]1O
TGI (SK-OV-3 ovarian): > 100 µM | TGI (HCC-2998 colon): > 100 µM | TGI (CCRF-CEM leukemia): > 100 µM | TGI (SNB-75 CNS): > 100 µM | TGI (SF-539 CNS): > 100 µM | TGI (SW-620 colon): > 100 µM | TGI (SNB-19 CNS): > 100 µM | TGI (A549 NSCLC): > 100 µM | TGI (DU-145 prostate): > 100 µM | TGI (K-562 leukemia): > 100 µM

Nc1nc(N)c2cc(Sc3cccc(C(F)(F)F)c3)ccc2n1
TGI (SK-OV-3 ovarian): 21 µM | TGI (HCC-2998 colon): 2.83 µM | TGI (CCRF-CEM leukemia): 15.3 µM | TGI (SNB-75 CNS): 15.9 µM | TGI (SF-539 CNS): 13.9 µM | GI50 (SW-620 colon): 0.267 µM | TGI (SW-620 colon): 1.57 µM | TGI (SNB-19 CNS): 18.4 µM | TGI (A549 NSCLC): 13.2 µM | TGI (DU-145 prostate): 14.4 µM | TGI (K-562 leukemia): 1.92 µM

Cc1ccc(-c2nc(-c3cn(C)c4ncccc34)cs2)cc1
GI50 (SK-OV-3 ovarian): 6.86 µM | TGI (SK-OV-3 ovarian): 27.5 µM | GI50 (HCC-2998 colon): 8.96 µM | TGI (HCC-2998 colon): 22.8 µM | GI50 (CCRF-CEM leukemia): 14.7 µM | TGI (CCRF-CEM leukemia): > 80 µM | GI50 (SNB-75 CNS): 4.16 µM | TGI (SNB-75 CNS): 22.4 µM | GI50 (SF-539 CNS): 5.59 µM | TGI (SF-539 CNS): 18.7 µM | GI50 (SW-620 colon): 1.95 µM | TGI (SW-620 colon): 8.91 µM | GI50 (SNB-19 CNS): 5.27 µM | TGI (SNB-19 CNS): 30.5 µM | GI50 (A549 NSCLC): 5.62 µM | TGI (A549 NSCLC): 21.3 µM | GI50 (DU-145 prostate): 7.42 µM | TGI (DU-145 prostate): 21.3 µM | GI50 (K-562 leukemia): 1.91 µM | TGI (K-562 leukemia): > 34.5 µM

C[C@@H]1COCCN1c1cc(C2([S@@](C)(=N)=O)CC2)nc(-c2ccnc3[nH]ccc23)n1
GI50 (SK-OV-3 ovarian): 2.95 µM | TGI (SK-OV-3 ovarian): 27.4 µM | GI50 (HCC-2998 colon): 4.69 µM | TGI (HCC-2998 colon): > 100 µM | GI50 (CCRF-CEM leukemia): 2.55 µM | TGI (CCRF-CEM leukemia): > 42.5 µM | GI50 (SNB-75 CNS): 2.3 µM | TGI (SNB-75 CNS): 28.6 µM | GI50 (SF-539 CNS): 2.32 µM | TGI (SF-539 CNS): 10.6 µM | GI50 (SW-620 colon): 8 µM | TGI (SW-620 colon): > 100 µM | GI50 (SNB-19 CNS): 7.72 µM | TGI (SNB-19 CNS): > 100 µM | GI50 (A549 NSCLC): 4.27 µM | TGI (A549 NSCLC): > 100 µM | GI50 (DU-145 prostate): 4.71 µM | TGI (DU-145 prostate): > 100 µM | GI50 (K-562 leukemia): 8.91 µM | TGI (K-562 leukemia): > 100 µM

NC(=Nc1ccc(N)cc1)C(N)=Nc1ccc(N)cc1
GI50 (SK-OV-3 ovarian): > 100 µM | TGI (SK-OV-3 ovarian): > 100 µM | GI50 (HCC-2998 colon): > 100 µM | TGI (HCC-2998 colon): > 100 µM | GI50 (CCRF-CEM leukemia): 45.7 µM | TGI (CCRF-CEM leukemia): > 100 µM | GI50 (SNB-75 CNS): > 100 µM | TGI (SNB-75 CNS): > 100 µM | GI50 (SF-539 CNS): 73.7 µM | TGI (SF-539 CNS): > 100 µM | GI50 (SW-620 colon): 64.1 µM | TGI (SW-620 colon): > 100 µM | GI50 (SNB-19 CNS): > 100 µM | TGI (SNB-19 CNS): > 100 µM | GI50 (A549 NSCLC): > 100 µM | TGI (A549 NSCLC): > 100 µM | GI50 (DU-145 prostate): > 100 µM | TGI (DU-145 prostate): > 100 µM | GI50 (K-562 leukemia): 81.8 µM | TGI (K-562 leukemia): > 100 µM

Cc1cnc(Nc2ccc(N3CCN(C)CC3)cc2)nc1Nc1ccc(Cl)c(NS(=O)(=O)C(C)(C)C)c1
GI50 (SK-OV-3 ovarian): 0.0972 µM | TGI (SK-OV-3 ovarian): 0.808 µM | GI50 (HCC-2998 colon): 0.383 µM | TGI (HCC-2998 colon): 1.84 µM | GI50 (CCRF-CEM leukemia): 0.18 µM | TGI (CCRF-CEM leukemia): 6.83 µM | GI50 (SNB-75 CNS): < 0.0256 µM | TGI (SNB-75 CNS): 0.828 µM | GI50 (SF-539 CNS): 0.434 µM | TGI (SF-539 CNS): 1.84 µM | GI50 (SW-620 colon): 0.232 µM | TGI (SW-620 colon): 5.45 µM | GI50 (SNB-19 CNS): 1.34 µM | TGI (SNB-19 CNS): 18.5 µM | GI50 (A549 NSCLC): 0.339 µM | TGI (A549 NSCLC): 1.81 µM | GI50 (DU-145 prostate): 0.303 µM | TGI (DU-145 prostate): 11 µM | GI50 (K-562 leukemia): 0.245 µM | TGI (K-562 leukemia): 7.74 µM
